US8895599B2, “Lipoprotein lipase-activating compositions comprising benzene derivates” (Otsuka Pharmaceutical Factory, Inc., priority 2008, dated 2014)

Assays:
human LPL mRNA = experiment: Test for increase in LPL mRNA expression (luciferase assay, HTB-92/p387/p383 cell line); type: cell-based; details: 120 h, HTB-92/p387/p383 cells, 5 days; for maximal fold induction: Max. Ind. Value=Lt/Lc, maximum luciferase activity over control; for EC50: concentration that increases LPL mRNA expression over the control by 50%
Text: Pharmacological Test 1 Test for Increase in LPL mRNA Expression
A luciferase assay was employed to simply and quickly detect an increase in human LPL mRNA. The principle of the assay is as follows:
Luciferase emits light when reacted with luciferine (substrate). The expression of LPL mRNA is controlled by 5′-UTR and 3′-UTR (promoter regions) of the LPL gene. By introducing the promoter regions of the LPL gene into a commercially available plasmid (for example, that produced by Clonetics Corp.) to produce a plasmid (reporter plasmid) that stably expresses luciferase in human cells, such a plasmid expresses luciferase only under conditions in which LPL mRNA can increase. Therefore, when the substrate is introduced to the expression system and the amount of luciferase expression (luciferase activity) is quantified as the extent of chemiluminescence, the amount of LPL mRNA expression can be estimated.
The test herein was performed as follows: Using a plasmid for the luciferase assay manufactured by Clontech, wherein human LPL 5′-UTR (Enerback, S., et al., Mol. Cell. Biol. 12 (10) (1992): 4622-4633) and 3′-UTR (Wion, K. L., et al., Science 235 (1987): 4796, 1638-1641) had been inserted, human-derived liposarcoma cell line SW872 (ATCC Accession No. HTB-92) was transformed to prepare an HTB-92/p387/p383 cell line, which stably expresses luciferase.
This HTB-92/p387/p383 cell line was introduced into a 225 cm^2 culture flask furnished with a culture medium and cultured at 37° C. in the absence of CO2 until reaching confluence. Leibovitz's L-15 culture medium (containing 10% FBS, 1% GlutaMaxII, 10 μg/ml streptomycin, 1 μg/ml puromycin, 250 μg/ml hygromycin B) was used as the culture medium. After reaching confluence, the cells were collected, plated on 384-well plates to have 20000 cells/well, and cultured with 50 μl/well of the culture medium under the same conditions as above (37° C., absence of CO2). After 3 days of culturing, the culture medium was replaced by 50 μl/well phenol-red-free DMEM (containing 10% FBS, 1% GlutaMax, 10 U/ml penicillin, 10 μg/ml streptomycin, 1 μg/ml puromycin, 250 μg/ml hygromycin, 1 μM dexamethasone, 0.5 μM IBMX; differentiation medium), and the cells were cultured for 5 more days at 37° C. in the presence of CO2 to differentiate.
Furthermore, the culture medium was replaced by a 50 μl/well medium containing a compound of the invention (compound prepared in an Example) as a test substance wherein the compound had been conditioned with DMSO to a specific concentration selected from 10^−4 M to 3×10^−10M. The cells were cultured for 5 days at 37° C. in the presence of CO2.
After 5 days of culturing, a luciferase substrate solution (manufactured by Promega Corporation) was introduced to each well in an amount of 30 μl/well. The cells were left to stand 10 minutes at room temperature, and luciferase activities were measured by a luminometer (a microplate scintilltion counter; The Wallac MicroBeta Trilux, manufactured by Perkin Elmer, Inc.).
Cells that had been cultured and differentiated in a differentiation medium prepared by adding 0.1% DMSO to the above-mentioned DMEM medium (differentiation medium) not containing phenol red were used as a control (i.e., cultured and differentiated for 5 days and then stimulated for 5 days). The luciferase activity of these control cells were measured as above. The EC50 value (the concentration of test substance that can increase the amount of LPL mRNA expression over the control by 50%, unit: M) was calculated based on the straight line obtained by plotting the results of the tests performed using the test substances at varying concentrations. The maximum induction (Max. Ind. values) was calculated according to the following equation: Max. Ind. Value=Lt/Lc wherein Lt represents the maximum luciferase activity occurred in response to test substance stimulation; and Lc represents the value indicating the luciferase activity of the control.

LPL = experiment: Test for LPL activity-increasing effect in normal rats (skeletal muscle LPL activity); type: in vivo; details: every day for 1 week, SD rats, soleus muscle, 4 h after administration
Procedure: Test for LPL Activity-Increasing Effect in Normal Rats
6-week-old SD rats (purchased from Charles River Japan) were used as subjects. The rats were divided into groups according to body weight at the age of 5 weeks. The rats in each test group were orally administered with a 5% gum arabic suspension in an amount of 5 ml/kg of body weight, the suspension containing the test compound of the invention in such an amount that the dose of the compound of the invention became 30 mg/kg of body weight in one group and 100 mg/kg of body weight in another group. The rats in a control group were orally administered with a 5% gum arabic suspension (not containing the test compound of the invention) in an amount of 5 ml/kg of body weight. Each sample suspension was orally administered every day at a specific time of day for 1 week starting when the rats reached the age of 6 weeks.
Four hours after the administration of the sample suspension, skeletal muscle tissues of the rats were collected, then freeze-clamped and stored under liquid nitrogen. LPL activity in the skeletal muscle tissues was measured by the following method.
The soleus muscle was homogenized in a chilled solution of 0.05 mol/L NH4OH—NH4Cl buffer (pH 8.5) containing 0.5 U/mL heparin at 1 mL/100 mg of tissue wet weight. After standing on ice for 60 min with vigorous mixing at intervals of 15 min, the homogenate was centrifuged at 3000 rpm and 4° C. for 10 min and the supernatant was separated.
The substrate solution was prepared by mixing 2 μCi of glycerol tri[1-^14C]oleate, 0.133 g of unlabeled triolein, 0.9 mL of 1% Triton X-100, and 0.9 mL of 4% bovine serum albumin. in 0.2 mol/L Tris-HCl buffer (pH 8.6) and 10.2 mL of 0.2 mol/L Tris-HCl buffer (pH 8.6). The mixture was emulsified by sonication on ice for 3 min.
In a glass test tube, 0.1 mL of the tissue extract, 0.05 mL of heat-inactivated rat serum and 0.15 mL of 4% bovine serum albumin in 0.2 mol/L Tris-HCl buffer (pH 7.4) were mixed. Enzyme reaction was started by adding 0.2 mL of the substrate solution and was carried out for 30 min. at 37° C.
The reaction was stopped by addition of 2 mL of 1.5 mol/L H2SO4/2-propanol (1:40, v/v), and 1 mL of distilled water and 3 mL of hexane were added into the test tube. After vigorously shaking for 10 min. at room temperature, the test tube was centrifuged for 10 min. at 3000 rpm.
The upper layer (3.5 mL) was collected in a new test tube and mixed with 1 mL of 0.1 mol/L KOH.
The test tube was vigorously shaken for 10 min. at room temperature and then centrifuged for 10 min. at 3000 rpm.
After removing the upper layer, 1 mL of the lower layer (water phase) was transferred into a vial for counting, neutralized with 50 μL of 1.3 mol/L HCl and mixed with 4 mL of scintillator. The radioactivity was measured using a liquid scintillation counter.
The LPL activity increase (%) was calculated from the measured values of LPL activity in the control group and test groups according to the following formula: LPL activity increase (%)=(Test group average value)/(Control group average value)×100−100

[1] = Therapeutical effect on olive oil-induced triglyceride hyperlipidemia models; type: in vivo; details: once a day for one week, SD rats, 2 h after olive oil
Procedure: Test of Therapeutical Effect on Olive Oil-Induced Triglyceride Hyperlipidemia Models
To conduct this test, 6-week-old SD rats (purchased from Charles River Japan) were used.
According to the body weight of the test rats when they were 5 weeks old, the test rats were divided into test groups and a control group with 6 rats per group.
A predetermined amount of each compound prepared in the Examples was measured and placed in an agate mortar. While 5% aqueous gum arabic solution was gradually introduced to the mortar, the compound was uniformly ground and suspended. Test samples were prepared by further adding 5% aqueous gum arabic solution gradually. Subsequently, these test samples were subjected to ultrasonic washing for 10 minutes to homogenize. Test samples were prepared as and when necessary.
The rats of the test groups were orally administered with the compounds of the invention such that rats received the compounds in an amount of 10, 30, or 100 mg/kg. The compounds of the invention were formulated as 5% gum arabic suspensions as described above.
The rats of the control group were orally administered with 5% aqueous gum arabic solution (not containing the compounds of the invention) in an amount of 5 ml/kg body weight. Administration was conducted once a day continuously for one week at a specific time of day after the rats reached 6 weeks of age. This test was performed under non-fasting conditions (rats had free access to feed and water), and the rats were fasted after the final administration of the compounds or 5% aqueous gum arabic solution.
Two hours after the final administration, olive oil was orally administered to the rats from both groups in an amount of 3 ml/kg body weight.
Two hours after the olive oil administration, blood was collected from the abdominal aorta of the rats of the respective groups using a heparinized syringe. The plasma was centrifugally separated from the blood at a temperature of 4° C., and the triglyceride level of the plasma was measured. A Hitachi 7170 automatic analyzer was used as the measuring instrument. Using the values measured from the test groups and control group, the decrease (%) in plasma triglyceride level was calculated according to the following equation: Decrease (%) in plasma triglyceride concentration=(1−E/C)×100 wherein E represents the average plasma triglyceride level in each test group; and C represents the average plasma triglyceride level in the control group.

| Structure (SMILES) | maximal fold induction (human LPL mRNA) | EC50 (human LPL mRNA) [µM] | melting point [°C] | Increase of skeletal muscle LPL activity compared to control (%) (LPL; 30 mg/kg oral) | Increase of skeletal muscle LPL activity compared to control (%) (LPL; 100 mg/kg oral) | Decrease in plasma triglyceride level (%) ([1]; 10 mg/kg oral) | Decrease in plasma triglyceride level (%) ([1]; 30 mg/kg oral) | Decrease in plasma triglyceride level (%) ([1]; 100 mg/kg oral) |
| --- | --- | --- | --- | --- | --- | --- | --- | --- |
| COc1cc(-c2cnc3ccccn23)ccc1OCc1ccc(Cl)c(Cl)c1 [Example 117] | 2.2 | 3.3 | – | – | – | – | – | – |
| COc1cc(-c2cn3ccccc3n2)ccc1OCc1cccc(F)c1 [Example 5] | 1.6 | 3.6 | 117 to 118 | – | – | – | – | – |
| COc1cc(-c2cn3ccccc3n2)ccc1OCc1ccc(C#N)cc1 [Example 30] | 1.9 | 6.7 | 175 to 177 | 22 | 31 | – | – | – |
| c1ccc(-c2cc3cc(-c4cn5ccccc5n4)ccc3o2)cc1 [Example 103] | 1.9 | 7.4 | 239.5 to 241 | – | – | – | – | – |
| COc1cc(-c2cn3ccsc3n2)ccc1OCc1ccc(Cl)cc1 [Example 23, 6-[4-(4-chlorobenzyloxy)-3-methoxyphenyl]imidazo[2,1-b]thiazole] | – | – | 126 to 128 | 18 | 15 | 66 | 78 | 77 |
| COc1cc(-c2cn3ccccc3n2)ccc1Oc1ccc(Cl)cc1 [Example 114] | 1.5 | 7.2 | 148 to 149 | – | – | – | – | – |
| COc1cc(-c2cn3ccccc3n2)ccc1Oc1ccccc1 [Example 138] | 2 | 2 | 95 to 97 | – | – | – | – | – |
| COc1cc(-c2cn3ccccc3n2)ccc1O[C@@H](C)c1ccccc1 [Example 134] | 1.7 | 6.4 | 149 to 150 | – | – | – | – | – |
| COc1cc(-c2cnc3ccccn23)ccc1OCc1ccc(Cl)cc1 [Example 109] | 1.5 | 3 | – | – | – | – | – | – |
| CCO[PH](=O)OCc1ccc(C(=O)Nc2ccc(Br)cc2C#N)cc1 (stereo not drawn) [ethyl 4-[(4-bromo-2-cyanophenyl)carbamoyl]benzyl phosphonate, reference compound] | ~1.2 | – | – | – | – | – | – | – |
| COc1cc(-c2cn3cccc(OCc4ccccc4)c3n2)ccc1OCc1ccc(Br)cc1 [Example 85] | – | – | 168 to 169 | 9 | 36 | – | – | – |
| COc1cc(-c2cnc3ccccn23)ccc1OC(C)c1ccccc1 (stereo not drawn) [Example 135] | 1.8 | 5.2 | 113 to 113.5 | – | – | – | – | – |
| COc1cc(-c2cn3ccccc3n2)ccc1OCc1ccccc1F [Example 4] | 1.7 | 2 | 115 to 117 | – | – | – | – | – |
| COc1cc(-c2cnc3ccccn23)ccc1O[C@H](C)c1ccccc1 [Example 132] | 1.7 | 6.2 | – | – | – | – | – | – |
